Test system: not given
Experiment: not given
Conditions: from COc1cc(C(=O)OC(C)C)cc2nc(-c3cc4ccc([C@@H](C)N)nc4n3CCCCCc3ccccc3C(=O)O)n(C)c12; amide bond; HATU; DCM; 24.6 mM; 25.0 °C; 16.0 h

With `COc1cc(C(=O)OC(C)C)cc2nc(-c3cc4ccc5nc4n3CCCCCc3ccccc3C(=O)N[C@@H]5C)n(C)c12` as the compound, how does the ring closure, yield of all isomers read?
Its ring closure, yield of all isomers is 70.9%.

Molecular target: T1, human PAD4 (Homo sapiens, UniProt Q9UM07)
T1 construct: human PAD4 (NM_012387), A2-P663, was PCR amplified; His-SUMO (N, cleaved yes); made in house; host or cells: E. coli BL21(DE3)
T1 sequence (Q9UM07 2-663): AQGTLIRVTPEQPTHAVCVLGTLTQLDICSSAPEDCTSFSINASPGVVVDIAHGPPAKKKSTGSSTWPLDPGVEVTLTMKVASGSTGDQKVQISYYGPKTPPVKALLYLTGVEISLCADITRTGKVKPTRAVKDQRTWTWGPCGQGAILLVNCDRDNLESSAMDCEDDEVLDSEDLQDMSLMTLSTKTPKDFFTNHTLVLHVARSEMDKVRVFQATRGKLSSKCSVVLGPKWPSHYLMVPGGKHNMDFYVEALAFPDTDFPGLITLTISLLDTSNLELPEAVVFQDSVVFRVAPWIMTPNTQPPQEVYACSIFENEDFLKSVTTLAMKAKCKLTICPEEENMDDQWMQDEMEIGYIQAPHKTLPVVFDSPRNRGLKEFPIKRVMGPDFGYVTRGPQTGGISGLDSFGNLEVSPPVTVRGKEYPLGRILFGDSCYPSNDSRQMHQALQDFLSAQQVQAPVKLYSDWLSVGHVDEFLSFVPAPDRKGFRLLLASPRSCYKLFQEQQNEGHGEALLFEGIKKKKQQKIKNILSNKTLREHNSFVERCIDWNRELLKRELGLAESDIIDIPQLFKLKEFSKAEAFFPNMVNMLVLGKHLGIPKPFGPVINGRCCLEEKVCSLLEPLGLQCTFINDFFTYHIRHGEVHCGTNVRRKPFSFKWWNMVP
Experiment: In vitro PAD4 BAEE biochemical assay
Conditions: BAEE substrate 3 mM, 5 nM PAD4, 2 mM calcium chloride; geometric mean of multiple experiments
In short: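 Ammonia produced by BAEE deimination (3 mM substrate, 2 h, 25 °C) was read as fluorescent isoindole after o-phthalaldehyde/DTT derivatization, ex 405 nm/em 535 nm. Human PAD4 at 5 nM final, 2 mM calcium, pH 7.6 MOPS; compound preincubated 30 min. IC50s, normalized to BB-Cl-Amidine and DMSO controls, were geometric-mean averaged.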

Which IC50 does the source give for `CC(C)n1c(-c2cc3ccc4nc3n2CCCCCc2nc(Cl)ccc2C(=O)N[C@@H]4C)nc2cc(C(=O)N3C[C@H](N)[C@@H]4CC[C@H]3C4)cc(F)c21` [Example 946, (2~{R})-17-[5-[(1~{S},4~ {R},5~{R})-4-amino-2-azabicyclo [3.2.1]octane-2-carbonyl]-7-fluoro-1-isopropyl-benzimidazol-2-yl]-8-chloro-2-methyl-3,9,16,22-tetrazatetracyclo[14.5.2.0^ {5,10}.0^{19,23}]tricosa-1(22),5(10),6,8,17,19(23),20-heptaen-4-one] here?
The IC50 was 69 nM.

For `C[C@H]1NC(=O)c2ccc(Cl)nc2CCCCCn2c(-c3nc4cc(C(=O)N5C[C@H](N)[C@@H]6CC[C@H]5C6)cc(F)c4n3CC(C)(C)C)cc3ccc1nc32` [Example 947, (2~{R})-17-[5-[(1~{S},4~ {R},5~{R})-4-amino-2-azabicyclo[3.2.1]octane-2-carbonyl]-1-(2,2-dimethylpropyl)-7-fluoro-benzimidazol-2-yl]-8-chloro-2-methyl-3,9,16,22-tetrazatetracyclo [14.5.2.0^{5,10}.0^{19,23}] tricosa-1(22),5(10),6,8,17, 19(23),20-heptaen-4-one], which IC50 is on record?
Its IC50 is 92 nM.

Which IC50 does the source give for `COc1cc(C(=O)N2C[C@H](N)[C@@H]3CC[C@H]2C3)cc2nc(-c3cc4ccc5nc4n3CCCCCC[C@@](C)(F)C(=O)N[C@@H]5C)n(C)c12` [Example 948, (8~{R},11~{R})-17-[5-[(1~{S},4~{R},5~{R})-4-amino-2-azabicyclo[3.2.1]octane-2-carbonyl]-7-methoxy-1-methyl-benzimidazol-2-yl]-8-fluoro-8,11-dimethyl-1,10,19-triazatricyclo[10.5.2.0^ {15,18}]nonadeca-12(19), 13,15(18),16-tetraen-9-one] here?
Its IC50 is 28 nM.

With `COc1cc(C(=O)N2C[C@H](N)[C@@H]3CC[C@H]2C3)cc2nc(-c3cc4ccc5nc4n3CCCCCC[C@](C)(F)C(=O)N[C@@H]5C)n(C)c12` [Example 949, (8~{S},11~{R})-17-[5-[(1~{S},4~{R},5~{R})-4-amino-2-azabicyclo[3.2.1]octane-2-carbonyl]-7-methoxy-1-methyl-benzimidazol-2-yl]-8-fluoro-8,11-dimethyl-1,10,19-triazatricyclo [10.5.2.0^{15,18}]nonadeca-12(19),13,15(18),16-tetraen-9-one] as the compound, how does the IC50 read?
The IC50 was 31 nM.

For `COc1cc(C(=O)N2C[C@H](N)[C@@H]3CC[C@H]2C3)cc2nc(-c3cc4ccc5nc4n3CCCc3ccc4cccc(c4c3)C(=O)N[C@@H]5C)n(C)c12` [Example 950, (4~{R})-10-[5-[(1~{S},4~{R},5~ {R})-4-amino-2-azabicyclo [3.2.1]octane-2-carbonyl]-7-methoxy-1-methyl-benzimidazol-2-yl]-4-methyl-3,6,11-triazapentacyclo [13.6.2.2^{5,8}.0^{7,11}.0^ {18,22}]pentacosa-1(22),5,7,9, 15(23),16,18,20,24-nonaen-2-one], which IC50 is on record?
Its IC50 is 38 nM.

With `[2H]C1([2H])CCCn2c(-c3nc4cc(C(=O)N5C[C@H](N)[C@@H]6CC[C@H]5C6)cc(F)c4n3C3CC3)cc3ccc(nc32)[C@@H](C)NC(=O)c2ccc(Cl)nc2C1([2H])[2H]` [Example 951, (2~{R})-17-[5-[(1~{S},4~{R}, 5~{R})-4-amino-2-azabicyclo [3.2.1]octane-2-carbonyl]-1-cyclopropyl-7-fluoro-benzimidazol-2-yl]-8-chloro-11,11,12,12-tetradeuterio-2-methyl-3,9,16,22-tetrazatetracyclo[14.5.2.0^ {5,10).0^{19,23}]tricosa-1(22),5(10),6,8,17,19(23),20-heptaen-4-one] as the compound, how does the IC50 read?
Its IC50 is 24 nM.

For `C[C@H]1NC(=O)[C@@H]2C[C@@]2(F)CCCCCn2c(-c3nc4cc(C(=O)N5C[C@H](N)[C@@H]6CC[C@H]5C6)cc(F)c4n3C3C[C@H]3F)cc3ccc1nc32` (stereo partly drawn) [Example 952, (2~{R},5~{S},7~{S})-14-[5-[(1~{S},4~{R},5~{R})-4-amino-2-azabicyclo[3.2.1]octane-2-carbonyl]-7-fluoro-1-[(1~{R},2~{R})-2-fluorocyclopropyl]benzimidazol-2-yl]-7-fluoro-2-methyl-3,13,19-triazatetracyclo [11.5.2.0^{5,7}.0^{16,20}] icosa-1(19),14,16(20),17-tetraen-4-one], which IC50 is on record?
The IC50 was 21 nM.

For `COc1cc(C(=O)N2C[C@H](N)[C@@H]3CC[C@H]2C3)cc2nc(-c3cc4ccc5nc4n3CCCCCc3ccc(F)cc3C(=O)N[C@@H]5C)n(C3CC3)c12` [Example 953, (2~{R})-17-[5-[(1~{S},4~{R}, 5~{R})-4-amino-2-azabicyclo [3.2.1]octane-2-carbonyl]-1-cyclopropyl-7-methoxy-benzimidazol-2-yl]-7-fluoro-2-methyl-3,16,22-triazatetracyclo[14.5.2.0^ {5,10}.0^{19,23}]tricosa-1(22),5(10),6,8,17,19(23), 20-heptaen-4-one], which IC50 is on record?
The IC50 was 68 nM.

Which IC50 does the source give for `COc1cc(C(=O)N2C[C@H](N)[C@@H]3CC[C@H]2C3)cc2nc(-c3cc4ccc5nc4n3CCCCCc3ccc(Cl)nc3C(=O)N[C@@H]5C)n(C)c12` [Example 954, (2~{R})-17-[5-[(1~{S},4~{R}, 5~{R})-4-amino-2-azabicyclo [3.2.1]octane-2-carbonyl]-7-methoxy-1-methyl-benzimidazol-2-yl]-7-chloro-2-methyl-3,6,16,22-tetrazatetracyclo[14.5.2.0^ {5,10}.0^{19,23}]tricosa-1(21),5(10),6,8,17,19,22-heptaen-4-one] here?
The IC50 was 32 nM.

Which IC50 does the source give for `COc1cc(C(=O)N2C[C@H](N)[C@@H]3CC[C@H]2C3)cc2nc(-c3cc4ccc5nc4n3CCCC[C@]3(F)C[C@H]3C(=O)N3CCC[C@H]53)n(C)c12` [Example 955, (2~{R},8~{S},10~{S})-16-[5-[(1~{S},4~{R},5~{R})-4-amino-2-azabicyclo[3.2.1]octane-2-carbonyl]-7-methoxy-1-methyl-benzimidazol-2-yl]-10-fluoro-6,15,21-triazapentacyclo [13.5.2.0^{2,6}.0^{8,10}.0^ {18,22}]docosa-1(21),16, 18(22),19-tetraen-7-one] here?
Its IC50 is 81 nM.

With “(2~{R})-17-[5-[(1~{S),4~{R}, 5~{R})-4-amino-2-azabicyclo [3.2.1]octane-2-carbonyl]-1- cyclopropyl-benzimidazol-2- yl]-8-chloro-2-methyl-3,9,16,22- tetrazatetracyclo[14.5.2.0^ {5,10}.0^{19,23}]tricosa- 1(22),5(10),6,8,17,19(23),20- heptaen-4-one [Example 926]” as the compound, how does the IC50 read?
Its IC50 is 23 nM.

For “(2~{R})-17-[5-[(1~{S},4~{R}, 5~{R})-4-amino-2-azabicyclo [3.2.1]octane-2-carbonyl]- 7-(difluoromethoxy)-1-methyl- benzimidazol-2-yl]-8-chloro- 2-methyl-3,9,16,22- tetrazatetracyclo[14.5.2.0^ {5,10).0^{19,23}]tricosa- 1(22),5(10),6,8,17,19(23),20- heptaen-4-one [Example 762]”, which IC50 is on record?
The IC50 was 26 nM.

Which IC50 does the source give for “(2~{R})-17-[5-[(1~{S}, 4~{R},5~{R})-4-amino-2- azabicyclo[3.2.1]octane-2- carbonyl]-1-cyclopropyl- 7-fluoro-benzimidazol-2-yl]- 6-(difluoromethyl)-2- methyl-3,7,16,22- tetrazatetracyclo[14.5.2.0^ {5,10}.0^{19,23}]tricosa- 1(22),5(10),6,8,17,19(23),20- heptaen-4-one [Example 718]” here?
Its IC50 is 18 nM.

Test system: collagen induced arthritis (CIA)
Experiment: not given
Conditions: prophylactic treatment, murine CIA model; cited from earlier work

For `CCn1c(-c2nc3cc(C(=O)N4CCC[C@@H](N)C4)cc(OC)c3n2C)cc2cccnc21.Cl` [GSK199], which “clinical and histological scores” value is on record?
The value was “improvement of clinical and histological scores”.

Which “clinical and histological scores” value does the source give for `NC(=O)[C@H](CCCN=C(N)CCl)NC(=O)c1ccccc1` [chloroamidine] here?
Its value is “improvement of clinical and histological scores”.

Test system: models of chronic and acute inflammatory diseases
Experiment: not given
Conditions: MRL/lpr mouse lupus, hemorrhagic shock in rats, mouse CLP sepsis, mouse DSS-colitis, ApoE-/- arteriosclerosis, diabetic wound healing models; cited from earlier work

With `NC(=O)[C@H](CCCN=C(N)CCl)NC(=O)c1ccccc1` [chloroamidine] as the compound, how does the “clinical, inflammatory, histopathological and mechanical end points” value read?
Its value is “reduction of clinical, inflammatory, histopathological and mechanical end points”.

For YW3-56, which “clinical, inflammatory, histopathological and mechanical end points” value is on record?
Its value is “reduction of clinical, inflammatory, histopathological and mechanical end points”.

Reference: patent US11976083B2, “Inhibitors of peptidylarginine deiminases” (Gilead Sciences, Inc., priority 2020, dated 2024)
